This experiment concerns HeLa viability, CellTiter-Glo ATP luminescence, 8-48 h. Kind of experiment: cytotoxicity in HeLa cervical cancer cells – cell-based, CellTiter-Glo ATP luminescence, 8-48 h, dry powder, mechanism study for HRAS target identification, late-stage follow-up (AID 720609). In general terms: In ATP-based viability assays light output follows the ATP content of the culture.

For the compound `C#CCCCC(=O)NCCOCCOCCOc1ccc(N(C(=O)CCl)C(C(=O)NCCc2ccccc2)c2cccs2)cc1Cl` (stereo not drawn), the AC50 (in general, the concentration giving half of the maximal activity seen) worked out at 6100 nM (measured here: AC50 at 8 h), 3100 nM (measured here: AC50 at 24 h) and 4790 nM (measured here: AC50 at 48 h).
In turn, `COC(=O)c1ccc([C@@H]2c3[nH]c4ccccc4c3C[C@@H](C(=O)OC)N2C(=O)CCl)cc1` had an AC50 (measured here: AC50 at 8 h) of 512 nM, an AC50 (measured here: AC50 at 24 h) of 609 nM and a half-maximal activity concentration (AC50) (measured here: AC50 at 48 h) of 602 nM.
On to `CCC(=O)N(c1ccc(OC)c(Cl)c1)C(C(=O)NCCc1ccccc1)c1cccs1` (stereo not drawn), for which the AC50 (measured here: AC50 at 24 h) is above 70000 nM.
Regarding `COc1ccc(N(C(=O)CCl)C(C(=O)NCCc2ccccc2)c2cccs2)cc1Cl` (stereo not drawn), the concentration at half-maximal activity (AC50) turned out to be 725 nM (measured here: AC50 at 8 h), 323 nM (measured here: AC50 at 24 h) and 699 nM (measured here: AC50 at 48 h).
For `CC(C)(C)OC(=O)NCCOCCOCCOc1ccc(N(C(=O)CCl)C(C(=O)NCCc2ccccc2)c2cccs2)cc1Cl` (stereo not drawn), in that order: 515 nM, 564 nM and 946 nM.

Values taken from PubChem BioAssay AID720609 (Broad Institute, 2013).
